The target in this test is MLL1-ASH2L/RbBP5/WDR5/DPY30. Put plainly: Inhibition of recombinant human MLL1 complex (MLL1/Ash2L/RbBP5/WDR5/DPY-30) expressed in Escherichia coli Rosetta 2 (DE3) cells using H3 (1 to 21) peptide as substrate incubated for 1 hr in presence of 3[H] SAM by […] assay.

Consider 19 compounds from ChEMBL document CHEMBL4616718, “Discovery of Potent Small-Molecule Inhibitors of MLL Methyltransferase” (ACS Med Chem Lett, 2020).

In the case of `Nc1ncnc2c1ncn2[C@@H]1O[C@H](CN(CC[C@H](N)C(=O)O)CC2CN(CCCc3ccccc3)C2)[C@@H](O)[C@H]1O`, the 50% inhibitory concentration (IC50) was 0.0296 µM.

`Nc1ncnc2c1ncn2[C@@H]1O[C@H](CN(CC[C@H](N)C(=O)O)CC2CN(Cc3ccc(Cl)cc3)C2)[C@@H](O)[C@H]1O`: the IC50 was 0.0556 µM. With `NCCN(CC[C@H](N)C(=O)O)C[C@H]1O[C@@H](n2cnc3c(N)ncnc32)[C@H](O)[C@@H]1O` the figure was 0.592 µM; with `Nc1ncnc2c1ncn2[C@@H]1O[C@H](CN(CC[C@H](N)C(=O)O)C2CN(CCCC3CCCC3)C2)[C@@H](O)[C@H]1O`, 0.234 µM. Next, `Nc1ncnc2c1ncn2[C@@H]1O[C@H](CN(CC[C@H](N)C(=O)O)CC2CN(Cc3ccccc3Cl)C2)[C@@H](O)[C@H]1O`: 0.15 µM; `Nc1ncnc2c1ncn2[C@@H]1O[C@H](CN(CC[C@H](N)C(=O)O)CC2CN(Cc3coc4ccccc34)C2)[C@@H](O)[C@H]1O`: 0.119 µM; `Nc1ncnc2c1ncn2[C@@H]1O[C@H](CN(CC[C@H](N)C(=O)O)CC2CN(Cc3cccc(Cl)c3)C2)[C@@H](O)[C@H]1O`: 0.0995 µM.

Take `Nc1ncnc2c1ncn2[C@@H]1O[C@H](CN(CC[C@H](N)C(=O)O)CC2CN(CCC(c3ccccc3)c3ccccc3)C2)[C@@H](O)[C@H]1O`: the concentration for half-maximal inhibition (IC50) came out at 0.138 µM. With `Nc1ncnc2c1ncn2[C@@H]1O[C@H](CN(CC[C@H](N)C(=O)O)C2CC(NCCCC3CCCC3)C2)[C@@H](O)[C@H]1O` (some centres undefined) the figure was 0.127 µM. With `Nc1ncnc2c1ncn2[C@@H]1O[C@H](CN(CC[C@H](N)C(=O)O)CC2CN(Cc3cccs3)C2)[C@@H](O)[C@H]1O` the figure was 0.0665 µM; with `Nc1ncnc2c1ncn2[C@@H]1O[C@H](CN(CC[C@H](N)C(=O)O)C2CC(CNCCCc3ccccc3)C2)[C@@H](O)[C@H]1O` (some centres undefined), 0.451 µM. Next, `CCCCN1CC(CN(CC[C@H](N)C(=O)O)C[C@H]2O[C@@H](n3cnc4c(N)ncnc43)[C@H](O)[C@@H]2O)C1`: 0.0724 µM; `Nc1ncnc2c1ncn2[C@@H]1O[C@H](CN(CC[C@H](N)C(=O)O)CC2CN(CCCC3CCCC3)C2)[C@@H](O)[C@H]1O`: 0.0255 µM; `Nc1ncnc2c1ncn2[C@@H]1O[C@H](CN(CC[C@H](N)C(=O)O)CC2CN(Cc3ccoc3)C2)[C@@H](O)[C@H]1O`: 0.0218 µM. In the case of `Nc1ncnc2c1ncn2[C@@H]1O[C@H](CN(CC[C@H](N)C(=O)O)Cc2cn(CCc3ccccc3)nn2)[C@@H](O)[C@H]1O`, the concentration for half-maximal inhibition (IC50) stood at 0.132 µM.

With `Nc1ncnc2c1ncn2[C@@H]1O[C@H](CN(CC[C@H](N)C(=O)O)CC2CN(Cc3ccsc3)C2)[C@@H](O)[C@H]1O`, the IC50 was determined as 0.0152 µM. Next, `Nc1ncnc2c1ncn2[C@@H]1O[C@H](CN(CC[C@H](N)C(=O)O)CC2CN(Cc3ccccc3)C2)[C@@H](O)[C@H]1O`: 0.0468 µM; `Nc1ncnc2c1ncn2[C@@H]1O[C@H](CN(CCCNCCCc2ccccc2)CC[C@H](N)C(=O)O)[C@@H](O)[C@H]1O`: 0.201 µM. Regarding `Nc1ncnc2c1ncn2[C@@H]1O[C@H](CSCC[C@H](N)C(=O)O)[C@@H](O)[C@H]1O` [S-ADENOSYLHOMOCYSTEINE], the half-inhibitory concentration (IC50) was 0.724 µM.
